Results published in patent US6410792B1, “Amide derivatives and methods for using the same as selective neuropeptide Y receptor antagonists” (Bayer Corporation, priority 1997, dated 2002).
Counter-ions that a name gives are not always drawn. Like-named read-outs stand apart in the source and are kept apart here.

Legend:
human Y4/PP1 receptor = human Y4/PP1 receptor (Homo sapiens, UniProt P50391); assay: Human Y4/PP1 receptor binding assay ([125I]human PP, membrane protein); conditions: [125I]human PP, membrane protein; read-out: hNPY4 IC50
Sequence of human Y4/PP1 receptor (P50391 whole entry): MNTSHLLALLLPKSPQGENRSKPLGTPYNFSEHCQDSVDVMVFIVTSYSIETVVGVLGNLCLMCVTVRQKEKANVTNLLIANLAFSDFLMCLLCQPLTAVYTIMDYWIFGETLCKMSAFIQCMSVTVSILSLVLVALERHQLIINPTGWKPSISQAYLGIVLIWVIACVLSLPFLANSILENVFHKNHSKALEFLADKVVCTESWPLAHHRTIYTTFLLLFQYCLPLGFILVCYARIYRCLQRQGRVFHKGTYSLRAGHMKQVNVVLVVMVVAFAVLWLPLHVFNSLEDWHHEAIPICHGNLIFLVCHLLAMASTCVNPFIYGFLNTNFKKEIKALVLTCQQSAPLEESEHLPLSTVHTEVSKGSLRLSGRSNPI
Procedure, shortened: (§1)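 Filtration binding with membrane protein and drug dilution, 2 h at room temperature with mixing, radioactivity counted by gamma or scintillation. Y2: 25 pM [125I]PYY in Krebs-Ringer bicarbonate pH 7.4 with 0.01% BSA, nonspecific by 1 μM NPY. Y4/PP1: 50 pM [125I]hPP in HEPES-buffered saline pH 7.4 with protease inhibitors and 0.3% BSA, nonspecific by 1 μM hPP.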

Human NPY5 receptor = target: T1, Human NPY5 receptor (Homo sapiens, UniProt Q15761); assay: Human NPY5 receptor binding assay ([125I]PYY, membrane protein)
T1 sequence (Q15761 1-445): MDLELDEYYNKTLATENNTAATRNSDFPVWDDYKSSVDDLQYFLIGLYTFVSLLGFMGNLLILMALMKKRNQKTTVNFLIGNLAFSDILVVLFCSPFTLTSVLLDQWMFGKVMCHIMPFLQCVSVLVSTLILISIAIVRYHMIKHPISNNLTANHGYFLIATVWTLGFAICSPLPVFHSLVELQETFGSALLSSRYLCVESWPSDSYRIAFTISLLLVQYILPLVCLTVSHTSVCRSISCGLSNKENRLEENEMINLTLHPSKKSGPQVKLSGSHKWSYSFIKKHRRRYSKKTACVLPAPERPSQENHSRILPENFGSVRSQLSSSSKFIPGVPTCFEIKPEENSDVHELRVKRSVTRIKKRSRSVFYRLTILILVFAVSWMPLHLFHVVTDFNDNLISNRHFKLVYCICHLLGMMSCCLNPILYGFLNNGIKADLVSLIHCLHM
Procedure, shortened: (§2)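 Bound [125I]PYY is measured by gamma counting or liquid scintillation after vacuum filtration and ice-cold washes. Before that, membranes, 75-100 pM tracer and compound are incubated 2 hours at room temperature, with nonspecific binding defined by 1 μM PYY.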

Rat NPY5 receptor [1] = target: T2, Rat NPY5 receptor (Rattus norvegicus, UniProt Q63634); assay: Rat NPY5 receptor binding assay ([125I]PYY, membrane protein)
T2 sequence (Q63634 1-445): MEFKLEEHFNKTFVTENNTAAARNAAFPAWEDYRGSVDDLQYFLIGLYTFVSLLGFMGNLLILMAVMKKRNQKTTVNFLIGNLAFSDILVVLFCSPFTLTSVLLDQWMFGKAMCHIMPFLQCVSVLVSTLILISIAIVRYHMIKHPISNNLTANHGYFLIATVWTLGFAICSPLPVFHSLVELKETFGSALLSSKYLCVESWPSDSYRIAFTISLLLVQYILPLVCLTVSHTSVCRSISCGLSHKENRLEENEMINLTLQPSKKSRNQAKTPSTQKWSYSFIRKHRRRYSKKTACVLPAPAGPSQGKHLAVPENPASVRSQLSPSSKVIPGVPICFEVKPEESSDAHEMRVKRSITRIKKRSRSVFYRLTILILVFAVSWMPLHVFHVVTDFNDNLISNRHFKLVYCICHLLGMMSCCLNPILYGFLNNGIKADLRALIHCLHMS
Procedure, shortened: as §2

Rat NPY5 receptor [2] = target: T2, Rat NPY5 receptor; assay: Rat NPY5 cyclase assay (in vitro functional assay, forskolin-stimulated adenylate cyclase, cAMP); type: cell-based; conditions: percentage of forskolin-stimulated adenylate cyclase; for activity at 10 µM: 20 min, read-out: rNPY5 % FSAC (10 μM)
Experimental: D. Rat NYP5 Cyclase Assay (In Vitro Functional Assay)
Cells stably expressing the rat NPY5 receptor are resuspended in serum-free DMEM containing 10 mM HEPES (pH 7.4) and 1 mM isobutylmethylxanthine (IBMX). […] forskolin and drug dilution are then added to the cells. After a 20 minute incubation of the samples at 37° C, the assay is stopped by placing the samples in boiling water for 3 minutes. The cAMP produced in each sample is quantitated with a radioimmunoassay kit (NEN DuPont). Data are expressed as a percentage of forskolin-stimulated adenylate cyclase.

Human NPY1 receptor = target: T3, Human NPY1 receptor (Homo sapiens, UniProt P25929); assay: Human NPY1 receptor binding assay ([125I]PYY, SK-N-MC cells); conditions: [125I]PYY, SK-N-MC cells; read-out: hNPYI IC50
T3 construct: host or cells: SK-N-MC cells
T3 sequence (P25929 1-384): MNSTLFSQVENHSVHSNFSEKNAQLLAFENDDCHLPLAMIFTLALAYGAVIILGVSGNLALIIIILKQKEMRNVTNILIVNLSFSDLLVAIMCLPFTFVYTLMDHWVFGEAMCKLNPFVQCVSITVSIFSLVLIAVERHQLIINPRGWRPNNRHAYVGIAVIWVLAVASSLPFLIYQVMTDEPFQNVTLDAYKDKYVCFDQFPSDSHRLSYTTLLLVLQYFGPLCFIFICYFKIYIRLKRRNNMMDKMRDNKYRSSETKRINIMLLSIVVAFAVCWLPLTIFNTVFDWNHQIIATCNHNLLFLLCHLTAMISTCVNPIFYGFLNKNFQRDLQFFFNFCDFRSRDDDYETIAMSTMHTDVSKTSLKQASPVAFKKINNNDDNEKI
Procedure, shortened: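 Confluent SK-N-MC cells preincubated 30 min at room temperature in serum-free DMEM/25 mM HEPES pH 7.3 with BSA, bacitracin and PMSF, then incubated 3 h at room temperature with compound and ~50 pM [125I]PYY. Nonspecific binding defined with 1 μM NPY; bound radioactivity counted after Triton X-100 lysis.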

Y2 receptor = target: T4, Y2 receptor (Homo sapiens, UniProt P49146); assay: Y2 receptor binding assay ([125I]PYY, membrane protein); conditions: membrane protein, read-out: hNPY2 IC50
T4 sequence (P49146 1-381): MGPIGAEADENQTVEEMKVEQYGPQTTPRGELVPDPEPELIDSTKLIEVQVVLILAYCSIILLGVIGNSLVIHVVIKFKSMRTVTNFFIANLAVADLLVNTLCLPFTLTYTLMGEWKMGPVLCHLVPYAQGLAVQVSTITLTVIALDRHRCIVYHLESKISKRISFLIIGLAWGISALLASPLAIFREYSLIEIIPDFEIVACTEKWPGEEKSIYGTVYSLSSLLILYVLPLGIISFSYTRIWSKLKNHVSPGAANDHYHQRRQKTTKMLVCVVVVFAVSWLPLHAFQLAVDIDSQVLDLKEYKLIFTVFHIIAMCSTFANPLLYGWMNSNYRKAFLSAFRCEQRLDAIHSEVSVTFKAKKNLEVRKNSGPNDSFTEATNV
Procedure, shortened: as §1

[3] = [125I]PYY, read-out: hNPY5 IC50
[4] = [125I]PYY, read-out: rNPY5 IC50

Structure (SMILES)	IC50 (human Y4/PP1 receptor) [µM]	IC50 (Human NPY5 receptor; [3]) [µM]	IC50 (Rat NPY5 receptor [1]; [4]) [µM]	activity at 10 µM (Rat NPY5 receptor [2]; 10 μM) [%]	IC50 (Human NPY1 receptor) [µM]	IC50 (Y2 receptor; [125I]PYY) [µM]	rNPY5 % FSAC (10 μM) (Rat NPY5 receptor [2]; 10 μM) [%]	melting point [°C]	IC50 (Human NPY5 receptor; [125I]PYY binding, read-out: hNPY5 IC50) [µM]	IC50 (Rat NPY5 receptor [1]; [125I]PYY binding, read-out: rNPY5 IC50) [µM]	activity at 10 µM (Rat NPY5 receptor [2]; compound at 10 μM) [%]	IC50 (Y2 receptor; [125I]PYY binding) [µM]	IC50 (Human NPY5 receptor; hNPY5 IC50, [125I]PYY binding) [µM]	IC50 (Rat NPY5 receptor [1]; rNPY5 IC50, [125I]PYY binding) [µM]
Cl.O=C(CN1CCC(n2c(=O)[nH]c3ccccc32)CC1)Nc1ccc(C(=O)C(=O)c2ccccc2)cc1 [Compound 265]	–	–	–	–	–	–	90	–	–	–	–	–	–	–
CC(=O)NC1CCN(CC(=O)Nc2ccc(C3CCCCC3)cc2)C1.O=C(O)C(=O)O (centres unmarked) [Compound 293, 2-(3-Acetylamino-pyrrolidin-1-yl)-N-(4-cyclohexyl-phenyl)-acetamide; compound with oxalic acid]	> 5	0.19	0.17	–	> 5	> 5	–	122	–	–	–	–	–	–
CNC1(C(N)=O)CCN(CC(=O)Nc2ccc(C3CCCCC3)cc2)CC1 [Compound 30, 1-[(4-Cyclohexyl-phenylcarbamoyl)-methyl]-4-methylamino-piperidin-4-carboxylic acid amide]	–	–	–	–	–	–	–	–	0.06	0.013	107	> 5	–	–
CC(C)N(CCNC(=O)CN1CCC(n2c(=O)[nH]c3ccccc32)CC1)C(C)C [Compound 281, N-(2-Diisopropylamino-ethyl)-2-[4-(2-oxo-2,3-dihydro-benzoimidazol-1-yl)-piperidin-1-yl]-acetamide]	> 5	> 10	> 10	–	> 5	> 5	–	195 to 196	–	–	–	–	–	–
CN(C(=O)CN1CCC(n2c(=O)[nH]c3ccccc32)CC1)c1ccc(C2CCCCC2)cc1 [Compound 270, N-(4-Cyclohexyl-phenyl)-N-methyl-2-[4-(2-oxo-2,3-dihydro-benzoimidazol-1-yl)-piperidin-1-yl]-acetamide]	> 5	> 10	> 10	–	> 5	> 5	–	250 to 253	–	–	–	–	–	–
O=C(CN1CCC(n2c(=O)[nH]c3ccccc32)CC1)Nc1ccc2c(c1)-c1ccccc1C2=O [Compound 266, 2-[4-(2-Oxo-2,3-dihydro-benzoimidazol-1-yl)-piperidin-1-yl]-N-(9-oxo-9H-fluoren-3-yl)-acetamide]	> 5	0.0005	0.0004	–	> 5	> 5	–	176	–	–	–	–	–	–
O=C(CN1CCC(O)(c2ccccc2)CC1)Nc1ccc(C2CCCCC2)cc1 [Compound 26, N-(4-Cyclohexyl-phenyl)-2-(4-hydroxy-4-phenyl-piperidin-1-yl)-acetamide]	–	–	–	–	–	–	–	–	–	–	111	> 5	0.093	0.037
O=C(CN1CCN(c2ccccc2)CC1)Nc1ccc(C2CCCCC2)cc1 [Compound 272, N-(4-Cyclohexyl-phenyl)-2-(4-phenyl-piperazin-1-yl)-acetamide]	> 5	0.117	0.21	–	> 5	> 5	–	195 to 196	–	–	–	–	–	–

Now from value to compound, other results behind:

IC50 (human Y4/PP1 receptor) [µM]	IC50 (Human NPY5 receptor; [3]) [µM]	IC50 (Rat NPY5 receptor [1]; [4]) [µM]	activity at 10 µM (Rat NPY5 receptor [2]; 10 μM) [%]	IC50 (Human NPY1 receptor) [µM]	IC50 (Y2 receptor; [125I]PYY) [µM]	rNPY5 % FSAC (10 μM) (Rat NPY5 receptor [2]; 10 μM) [%]	melting point [°C]	IC50 (Human NPY5 receptor; [125I]PYY binding, read-out: hNPY5 IC50) [µM]	IC50 (Rat NPY5 receptor [1]; [125I]PYY binding, read-out: rNPY5 IC50) [µM]	Structure (SMILES)	activity at 10 µM (Rat NPY5 receptor [2]; compound at 10 μM) [%]	IC50 (Y2 receptor; [125I]PYY binding) [µM]	IC50 (Human NPY5 receptor; hNPY5 IC50, [125I]PYY binding) [µM]	IC50 (Rat NPY5 receptor [1]; rNPY5 IC50, [125I]PYY binding) [µM]
> 5	0.032	0.045	103	> 5	> 5	–	–	–	–	NC(=O)C1CCCN1CC(=O)Nc1ccc(C2CCCCC2)cc1 (centres unmarked) [Compound 297, 1-[(4-Cyclohexyl-phenylcarbamoyl)-methyl]-pyrrolidin-2-carboxylic acid amide; hydrochloride]	–	–	–	–
> 5	2.9	3.3	93	> 5	> 5	–	–	–	–	O=C(CN1CCC(n2c(=O)[nH]c3ccccc32)CC1)Nc1ccc(O)cc1 [Compound 345, N-(4-Hydroxy-phenyl)-2-[4-(2-oxo-2,3-dihydro-benzoimidazol-1-yl)-piperidin-1-yl]-acetamide, reference compound]	–	–	–	–
> 5	0.053	0.0628	90	> 5	> 5	–	–	–	–	O=C(CN1CCC(n2c(=O)[nH]c3ccccc32)CC1)Nc1ccc(Oc2ccccc2)cc1 [Compound 352, 2-[4-(2-Oxo-2,3-dihydro-benzoimidazol-1-yl)-piperidin-1-yl]-N-(4-phenoxy-phenyl)-acetamide, reference compound]	–	–	–	–
> 5	0.18	0.1	139	–	> 5	–	–	–	–	Cc1ccc(OC(=O)c2ccc(NC(=O)CN3CCC(n4c(=O)[nH]c5ccccc54)CC3)cc2)cc1 [Compound 264, 4-{2-[4-(2-Oxo-2,3-dihydro-benzoimidazol-1-yl)-piperidin-1-yl]-acetylamino}-benzoic acid P-tolyl ester; hydrochloride]	–	–	–	–
> 5	0.044	0.035	–	> 5	> 5	–	204	–	–	Cl.O=C(CN1CCC(n2c(=O)[nH]c3ccccc32)CC1)Nc1ccc2c(c1)C(=O)c1ccccc1-2 [Compound 306, 2-[4-(2-Oxo-2,3-dihydro-benzoimidazol-1-yl)-piperidin-1-yl]-N-(9-oxo-9H-fluoren-2-yl)-acetamide; hydrochloride]	–	–	–	–
> 5	0.13	0.12	–	> 5	> 5	–	134 to 135	–	–	O=C(CN1CCC(n2c(=O)[nH]c3ccccc32)CC1)Nc1cccc(C(=O)c2ccccc2)c1 [Compound 268, N-(3-Benzoyl-phenyl)-2-[4-(2-oxo-2,3-dihydro-benzoimidazol-1-yl)-piperidin-1-yl]-acetamide]	–	–	–	–
